Here are results for 1 compound from patent publication US20210393547A1, “USE OF EMODIN IN TREATING RETINAL ISCHEMIA OR A DISEASE, CONDITION, OR DISORDER ASSOCIATED WITH RETINAL ISCHEMIA” (priority 2020, published 2021).

In the series the test system is retinal ischemia in Wistar rats. Nature of the series: ERG b-wave recording after raised-IOP retinal ischemia/reperfusion. The conditions noted are these: for ERG b-wave ratio (treated eye to untreated fellow eye): mean±S.E.M.; for ERG b-wave amplitude: Wistar rat. The format is in vivo, rat. As for the experimental part:
Emodin was purchased from Sigma-Aldrich (E7881; 90%; storage at 2-8° C.; from Frangula bark; St. Louis, Mo., United States). Drug administration for different procedures, namely ERG, fluorogold RGC labelling, cresyl violet retinal staining and Western blot assays, were described in Tables 3 to 6. Vehicle or emodin (5 μL) was administered via an intravitreous injection route so that these agents were then able to be directly diffused to the target. Emodin was dissolved in vehicle (DMSO:distilled water=1:3). The defined final cellular concentrations of administered drug were 0.25 or 0.5 μM, which were achieved after 40 times dilution from the stock concentrations, namely 10 or 20 μM, based on an arbitrary definition of the vitreous volume as 200 μL. To test a wider range of dose-response, 4 μM of emodin was thus added in the animal experiments. The Vehicle+IR and Emo+IR groups (pre-ischemic administration of emodin 4, 10 or 20 μM) were subjected to following the experimental procedures; these were initial pre-ischemic intravitreous injection (vehicle or emodin), retinal ischemia induction 1 day later, and sacrifice of the animal on the following day to allow the various post-mortem procedures except ERG. In the post-ischemic treatment group, in order to decrease the number of animals used, the present invention only used a single emodin concentration of 20 μM. Furthermore, intravitreous emodin was given 1 day after initial retinal ischemia induction and animals were sacrificed the following day to allow the performance of various post-mortem procedures as mentioned above.
The IOP procedure used raised the IOP and was designed to cause retinal ischemia in Wistar rats and simulate ischemic retinal disorders. The rats were anesthetized and constrained with a sterotaxic frame. A 30-gauge needle connected to an elevated saline bottle was attached to anterior chamber of the rat's eye. The pressure exerted by the saline inside the bottle was controlled to 120 mmHg. This procedure was conducted for 1 hour. Successful retinal ischemia induction was confirmed by observing that the whitening of the retina took place. Throughout the experiments, the animals were kept on heat mats to maintain their temperature. The sham procedure involved keeping the pressure in saline bottle 0 mmHg.
Animals were given anesthesia prior to the flash ERG measurements. For the Sham or pre-ischemic treatment group (intravitreous injection of emodin or vehicle 1 day before ischemia; Emodin+IR or Vehicle+IR), flash ERG responses were measured before the sham procedure, IR procedures or any drug administration (day 0), and one day after the sham procedure or IR procedure with pre-ischemic intravitreous injection. In the post-ischemic treatment group, ERG recordings were collected pre-ischemia (day 0), and post-ischemia (at timepoints: 1 day after ischemia; 1 day after post-ischemic intravitreous injection of emodin). Dark adaption and pupil dilation using 1% tropicamide and 2.5% phenylephrine were carried out 8 hours before the ERG measurement. The ERG recording machinery was purchased from the Grass-Telefactor Company (AstroNova, QC, Canada) and included a stimulator (PS22), a regulated power supply (RPS107), and an amplifier (P511). A strobe light (0.5 Hz), which acted as the source of stimulus, was placed 2 cm directly in front of the rat's eye. Fifteen consecutive measurements (10 kHz) were retrieved every two seconds. The amplitudes were calculated to obtain an average. To make comparisons between the various groups, the ratios of the b-wave amplitude of one eye (sham procedure or ischemic insult with defined agents) to that of the untreated fellow normal eye were analyzed.

Structures are written as SMILES.

`Cc1cc(O)c2c(c1)C(=O)c1cc(O)cc(O)c1C2=O` [emodin, 6-methyl-1,3,8-trihydroxyanthraquinone]: the “ERG b-wave ratio (treated eye to untreated fellow eye)” value reads like this: (Emo4+IR: pre-ischemic intravitreous 4 μM emodin, n=8, Sham normalized to 1, Vehicle+IR 0.04) 0.08±0.07; (Emo10+IR: pre-ischemic intravitreous 10 μM emodin, n=4, P<0.001 vs Vehicle+IR) 0.64±0.28; (Emo20+IR: pre-ischemic intravitreous 20 μM emodin, n=4, P<0.001 vs Vehicle+IR) 0.99±0.18; (IR+Emo20: post-ischemic intravitreous 20 μM emodin, n=9, P<0.001 vs Vehicle+IR) 0.24±0.09. Moreover, the ERG b-wave amplitude by setting is: (Emo4+IR: pre-ischemic intravitreous injection of 4 μM emodin followed by IR, Sham 0.87, Vehicle+IR 0.03) 0.07 mV; (Emo10+IR: pre-ischemic intravitreous injection of 10 μM emodin followed by IR) 0.58 mV; (Emo20+IR: pre-ischemic intravitreous injection of 20 μM emodin followed by IR) 0.63 mV; (IR+Emo20: IR followed by post-ischemic intravitreous injection of 20 μM emodin) 0.12 mV.
